Some targets named below: Mu-type opioid receptor (Homo sapiens, UniProt P35372); Melanocortin receptor 4 (Homo sapiens, UniProt P32245); Cannabinoid receptor 1 (Homo sapiens, UniProt P21554).
Test [1] addresses T1, Androgen receptor (Rattus norvegicus, UniProt P15207).
T1 sequence (P15207 whole entry): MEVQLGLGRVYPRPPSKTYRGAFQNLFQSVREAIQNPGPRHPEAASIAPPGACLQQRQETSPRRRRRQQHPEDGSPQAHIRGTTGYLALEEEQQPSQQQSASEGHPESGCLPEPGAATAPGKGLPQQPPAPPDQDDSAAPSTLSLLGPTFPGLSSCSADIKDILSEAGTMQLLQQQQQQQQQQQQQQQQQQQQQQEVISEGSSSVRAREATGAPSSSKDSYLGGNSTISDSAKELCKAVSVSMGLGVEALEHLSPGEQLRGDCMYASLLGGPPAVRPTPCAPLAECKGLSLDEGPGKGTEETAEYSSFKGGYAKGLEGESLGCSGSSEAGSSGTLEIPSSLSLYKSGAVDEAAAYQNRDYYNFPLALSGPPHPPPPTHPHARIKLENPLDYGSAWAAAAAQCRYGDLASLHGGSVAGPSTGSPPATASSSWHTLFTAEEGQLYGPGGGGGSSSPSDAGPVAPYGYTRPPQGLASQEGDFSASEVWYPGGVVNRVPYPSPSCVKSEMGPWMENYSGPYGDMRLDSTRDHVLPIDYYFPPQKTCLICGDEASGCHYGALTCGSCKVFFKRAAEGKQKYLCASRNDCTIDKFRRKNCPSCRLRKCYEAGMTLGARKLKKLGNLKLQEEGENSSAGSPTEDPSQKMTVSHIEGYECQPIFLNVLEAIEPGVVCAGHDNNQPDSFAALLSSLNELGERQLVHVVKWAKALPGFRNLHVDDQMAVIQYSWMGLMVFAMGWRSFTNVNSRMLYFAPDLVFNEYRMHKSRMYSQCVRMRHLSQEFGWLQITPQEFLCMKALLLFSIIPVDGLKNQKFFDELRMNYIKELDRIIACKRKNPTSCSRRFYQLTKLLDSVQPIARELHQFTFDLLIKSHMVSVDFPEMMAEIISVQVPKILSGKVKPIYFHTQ
The format is functional.

For test [2], the target named is T1, Androgen receptor. The test is classed as functional. This is another data set of the same source.
Test [3] deals with Beta-2 adrenergic receptor (Homo sapiens, UniProt P07550). The format is functional, cell-based.
Beta-2 adrenergic receptor, sequence (P07550 whole entry): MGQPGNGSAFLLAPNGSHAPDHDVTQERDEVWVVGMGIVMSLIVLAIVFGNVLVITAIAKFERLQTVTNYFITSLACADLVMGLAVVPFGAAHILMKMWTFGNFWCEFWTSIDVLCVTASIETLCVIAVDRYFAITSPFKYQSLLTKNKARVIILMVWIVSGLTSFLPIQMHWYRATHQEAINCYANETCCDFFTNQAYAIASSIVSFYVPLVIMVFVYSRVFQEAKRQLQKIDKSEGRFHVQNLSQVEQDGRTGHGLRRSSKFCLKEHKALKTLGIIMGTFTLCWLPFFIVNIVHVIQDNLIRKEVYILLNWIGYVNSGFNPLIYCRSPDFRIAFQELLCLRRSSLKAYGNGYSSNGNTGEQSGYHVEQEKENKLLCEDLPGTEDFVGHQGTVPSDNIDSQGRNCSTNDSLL
Test [4] deals with 5-hydroxytryptamine receptor 2B (Homo sapiens, UniProt P41595).
5-hydroxytryptamine receptor 2B, sequence (P41595 whole entry): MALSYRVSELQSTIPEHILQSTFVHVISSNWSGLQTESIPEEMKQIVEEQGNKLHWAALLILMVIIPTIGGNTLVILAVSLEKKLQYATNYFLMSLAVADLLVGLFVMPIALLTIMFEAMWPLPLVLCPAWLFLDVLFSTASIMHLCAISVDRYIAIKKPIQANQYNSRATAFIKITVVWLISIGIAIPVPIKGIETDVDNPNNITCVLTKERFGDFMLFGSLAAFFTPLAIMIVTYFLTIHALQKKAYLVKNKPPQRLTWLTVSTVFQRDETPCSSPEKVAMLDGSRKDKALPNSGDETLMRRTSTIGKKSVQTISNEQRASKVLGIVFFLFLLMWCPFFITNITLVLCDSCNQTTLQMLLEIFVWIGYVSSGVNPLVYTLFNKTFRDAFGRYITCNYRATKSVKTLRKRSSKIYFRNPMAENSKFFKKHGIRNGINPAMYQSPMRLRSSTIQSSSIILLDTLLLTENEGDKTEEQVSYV
In test [5] the target is T2, Endothelin receptor type B (Homo sapiens, UniProt P24530).
T2 sequence (P24530 whole entry): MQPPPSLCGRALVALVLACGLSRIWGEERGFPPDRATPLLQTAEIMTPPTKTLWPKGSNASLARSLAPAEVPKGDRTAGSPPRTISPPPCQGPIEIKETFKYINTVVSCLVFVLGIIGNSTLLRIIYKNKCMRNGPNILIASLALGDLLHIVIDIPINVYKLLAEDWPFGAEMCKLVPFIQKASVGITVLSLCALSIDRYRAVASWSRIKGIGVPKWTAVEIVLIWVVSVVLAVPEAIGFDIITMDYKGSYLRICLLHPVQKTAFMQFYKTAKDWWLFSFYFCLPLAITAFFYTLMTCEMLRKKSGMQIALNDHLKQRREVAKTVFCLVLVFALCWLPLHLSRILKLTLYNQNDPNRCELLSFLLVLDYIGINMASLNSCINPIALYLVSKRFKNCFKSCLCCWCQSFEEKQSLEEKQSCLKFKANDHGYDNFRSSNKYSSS

The target in test [6] is Neurotensin receptor type 1 (Homo sapiens, UniProt P30989).
Neurotensin receptor type 1, sequence (P30989 whole entry): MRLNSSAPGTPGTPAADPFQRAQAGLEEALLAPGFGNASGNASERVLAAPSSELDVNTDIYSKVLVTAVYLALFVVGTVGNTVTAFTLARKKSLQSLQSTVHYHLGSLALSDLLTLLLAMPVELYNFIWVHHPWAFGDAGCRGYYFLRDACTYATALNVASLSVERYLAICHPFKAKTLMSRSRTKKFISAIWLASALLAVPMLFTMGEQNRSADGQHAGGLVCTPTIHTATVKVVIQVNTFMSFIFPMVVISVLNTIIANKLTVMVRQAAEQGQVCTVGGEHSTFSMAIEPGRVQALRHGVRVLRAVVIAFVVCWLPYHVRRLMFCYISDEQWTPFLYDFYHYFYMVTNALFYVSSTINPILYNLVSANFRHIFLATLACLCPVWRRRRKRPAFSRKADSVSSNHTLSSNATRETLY
Test [7] has as its target Beta-3 adrenergic receptor (Homo sapiens, UniProt P13945).
Test [8] has as its target T3, Alpha-1A adrenergic receptor (Homo sapiens, UniProt P35348).
T3 sequence (P35348 whole entry): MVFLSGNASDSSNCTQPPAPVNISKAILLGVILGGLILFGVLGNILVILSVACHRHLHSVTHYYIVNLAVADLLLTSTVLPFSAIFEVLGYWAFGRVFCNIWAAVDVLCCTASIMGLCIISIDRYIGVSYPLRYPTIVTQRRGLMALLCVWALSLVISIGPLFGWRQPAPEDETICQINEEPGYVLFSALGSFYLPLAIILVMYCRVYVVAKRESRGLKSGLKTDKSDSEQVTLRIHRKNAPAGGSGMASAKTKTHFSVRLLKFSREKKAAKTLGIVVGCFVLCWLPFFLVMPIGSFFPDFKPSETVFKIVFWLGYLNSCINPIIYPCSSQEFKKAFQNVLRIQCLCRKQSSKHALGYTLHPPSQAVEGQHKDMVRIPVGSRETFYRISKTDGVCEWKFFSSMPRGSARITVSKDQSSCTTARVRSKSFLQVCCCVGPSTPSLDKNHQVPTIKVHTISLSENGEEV

For 16 compounds, AC50 results are on record in ChEMBL document CHEMBL5291721, “A preclinical secondary pharmacology resource illuminates target-adverse drug reaction associations of marketed drugs” (Nat Commun, 2023).

Broadly, the AC50 is the concentration at which the activity in the assay is half-maximal. Low readings indicate activity at low concentration, high ones activity only at high concentration.
Also: assay procedure not described here.

Cannabinoid receptor 1, sequence (P21554 whole entry): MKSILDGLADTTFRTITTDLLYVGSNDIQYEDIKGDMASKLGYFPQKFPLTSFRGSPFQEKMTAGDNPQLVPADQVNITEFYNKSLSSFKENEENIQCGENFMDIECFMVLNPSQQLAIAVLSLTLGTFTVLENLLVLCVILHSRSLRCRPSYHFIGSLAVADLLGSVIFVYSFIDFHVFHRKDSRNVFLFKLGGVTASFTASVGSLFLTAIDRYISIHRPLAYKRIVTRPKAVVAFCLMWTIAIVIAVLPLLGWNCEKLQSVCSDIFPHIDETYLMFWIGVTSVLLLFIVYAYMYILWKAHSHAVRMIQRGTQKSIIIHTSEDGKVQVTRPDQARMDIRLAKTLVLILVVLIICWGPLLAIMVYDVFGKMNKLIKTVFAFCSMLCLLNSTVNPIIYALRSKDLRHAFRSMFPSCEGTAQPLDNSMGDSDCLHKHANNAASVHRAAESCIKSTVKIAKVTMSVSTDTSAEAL
Mu-type opioid receptor, sequence (P35372 whole entry): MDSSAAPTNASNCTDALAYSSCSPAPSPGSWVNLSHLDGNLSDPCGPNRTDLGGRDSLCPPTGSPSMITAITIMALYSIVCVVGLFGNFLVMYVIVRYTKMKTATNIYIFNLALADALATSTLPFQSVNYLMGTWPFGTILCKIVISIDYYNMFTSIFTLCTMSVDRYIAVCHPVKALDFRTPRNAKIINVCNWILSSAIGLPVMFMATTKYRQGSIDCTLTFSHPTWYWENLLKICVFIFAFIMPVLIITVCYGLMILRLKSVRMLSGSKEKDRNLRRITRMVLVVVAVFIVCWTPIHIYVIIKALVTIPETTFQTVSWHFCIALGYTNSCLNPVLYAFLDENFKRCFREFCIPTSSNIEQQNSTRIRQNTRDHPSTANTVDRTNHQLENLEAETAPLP
Beta-3 adrenergic receptor, sequence (P13945 whole entry): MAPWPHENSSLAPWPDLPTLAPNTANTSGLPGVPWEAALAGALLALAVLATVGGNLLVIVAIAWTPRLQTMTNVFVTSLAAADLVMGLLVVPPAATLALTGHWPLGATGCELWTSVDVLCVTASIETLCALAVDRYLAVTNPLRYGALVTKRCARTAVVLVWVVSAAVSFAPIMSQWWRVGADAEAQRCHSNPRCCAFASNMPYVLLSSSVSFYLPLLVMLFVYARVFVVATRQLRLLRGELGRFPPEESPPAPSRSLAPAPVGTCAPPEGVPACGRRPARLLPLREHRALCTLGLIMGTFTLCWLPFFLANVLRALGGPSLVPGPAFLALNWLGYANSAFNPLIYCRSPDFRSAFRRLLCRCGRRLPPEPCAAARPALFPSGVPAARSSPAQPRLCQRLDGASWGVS
Melanocortin receptor 4, sequence (P32245 whole entry): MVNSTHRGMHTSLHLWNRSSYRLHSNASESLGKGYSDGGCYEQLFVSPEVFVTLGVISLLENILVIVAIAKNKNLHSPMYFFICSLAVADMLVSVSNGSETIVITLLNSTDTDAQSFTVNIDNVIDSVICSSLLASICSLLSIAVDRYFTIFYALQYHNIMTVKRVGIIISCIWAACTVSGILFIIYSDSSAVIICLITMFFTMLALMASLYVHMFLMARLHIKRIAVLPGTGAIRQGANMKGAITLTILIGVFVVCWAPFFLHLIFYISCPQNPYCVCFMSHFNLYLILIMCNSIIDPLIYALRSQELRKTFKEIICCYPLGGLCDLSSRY

Regarding `COc1ccc2c(c1)c(CC(=O)OCC(=O)O)c(C)n2C(=O)c1ccc(Cl)cc1` [ACEMETACIN], the AC50 on Androgen receptor [1] and on Androgen receptor [2] was > 30 µM in each case.

As for `CCCCN1CCCCC1C(=O)Nc1c(C)cccc1C` (stereo unspecified) [BUPIVACAINE], the AC50 at Androgen receptor [1] and on Androgen receptor [2] was > 30 µM throughout.

On to `CCC(C(=O)O)c1ccc(CC(C)C)cc1` (stereo unspecified) [BUTIBUFEN], for which the AC50 (in test [3]; at Androgen receptor [1]; on Androgen receptor [2]) was > 30 µM in each case.

For the compound `CCOc1cc(N)c([N+](=O)[O-])cc1C(=O)NC1CCN(CC2CC=CCC2)CC1` (stereo unspecified) [CINITAPRIDE], the AC50 on Androgen receptor [1] was > 30 µM; on Androgen receptor [2], > 30 µM; in test [4] it was 0.0023 µM.

In the case of `CC(C)(Oc1ccc(C2CC2(Cl)Cl)cc1)C(=O)O` (stereo unspecified) [CIPROFIBRATE], the AC50 at Androgen receptor [1] and at Androgen receptor [2] was > 30 µM each time.

Regarding `COC(=O)[C@H]1[C@@H](OC(=O)c2ccccc2)C[C@@H]2CC[C@H]1N2C` [COCAINE], the AC50 at Androgen receptor [1] and on Androgen receptor [2] was > 30 µM each time.

In the case of `[H]/N=C(/N)c1ccc(NCc2nc3cc(C(=O)N(CCC(=O)O)c4ccccn4)ccc3n2C)cc1` [DABIGATRAN], the AC50 (in [3]; on Androgen receptor [1]; on Mu-type opioid receptor; on Androgen receptor [2]) was > 30 µM throughout.

For the compound `CCCCCN(C)CCC(O)(P(=O)(O)O)P(=O)(O)O` [IBANDRONIC ACID], the AC50 in test [5] was > 30 µM; in [6], > 30 µM; on Melanocortin receptor 4, > 30 µM; in test [7], > 30 µM; in [8], > 10 µM; on Androgen receptor [1], > 30 µM. The AC50 was > 30 µM on Mu-type opioid receptor, > 30 µM on Androgen receptor [2], > 10 µM in test [4] and > 30 µM on Cannabinoid receptor 1.

For the compound `C1=Cc2cccc(OCC3CNCCO3)c2C1` (stereo unspecified) [INDELOXAZINE], the AC50 (in [3]; at Androgen receptor [1]; on Androgen receptor [2]) was > 30 µM each time.

As to `O=C(OCCN1CCOCC1)c1cccnc1Nc1cccc(C(F)(F)F)c1` [MORNIFLUMATE], the AC50 on Androgen receptor [1] and on Androgen receptor [2] was > 30 µM throughout.

As for `COc1c(C)c2c(c(O)c1C/C=C(\C)CCC(=O)OCCN1CCOCC1)C(=O)OC2` [MYCOPHENOLATE MOFETIL], the AC50 (in test [3]; at Androgen receptor [1]; at Androgen receptor [2]) was > 30 µM each time.

`CCCCCCC(C)(C)c1cc(O)c2c(c1)OC(C)(C)C1CCC(=O)CC21` (stereo unspecified) [NABILONE]: the AC50 (in test [3]; on Androgen receptor [1]; at Androgen receptor [2]) was > 30 µM each time.

Turning to `Cc1nc2ccc(CN(C)c3ccc(C(=O)N[C@@H](CCC(=O)O)C(=O)O)s3)cc2c(=O)[nH]1` [RALTITREXED], the AC50 at Androgen receptor [1], on Androgen receptor [2] and on Cannabinoid receptor 1 was > 30 µM throughout.

In the case of `O=C1NCCN1CCN1CCC(c2cn(-c3ccc(F)cc3)c3ccc(Cl)cc23)CC1` [SERTINDOLE], the AC50 in test [8] is 0.017 µM; on Androgen receptor [1] it was > 30 µM; at Androgen receptor [2] it was > 30 µM; in test [4], 0.012 µM.

Take `CC[C@]1(O)C[C@@H]2CN(CCc3c([nH]c4ccccc34)[C@@](C(=O)OC)(c3cc4c(cc3OC)N(C)[C@H]3[C@@](O)(C(N)=O)[C@H](O)[C@]5(CC)C=CCN6CC[C@]43[C@@H]65)C2)C1` [VINDESINE]: the AC50 on Androgen receptor [1], on Androgen receptor [2] and at Cannabinoid receptor 1 was > 30 µM throughout.

Turning to TOCOFERSOLAN, the AC50 at Androgen receptor [1] and on Androgen receptor [2] was > 30 µM each time.
